Test results taken from ChEMBL document CHEMBL5346978, “Exploration of Tetrahydroisoquinoline- and Benzo[c]azepine-Based Sphingosine 1-Phosphate Receptor 1 Agonists for the Treatment of Multiple Sclerosis” (J Med Chem, 2023).
Each block holds one compound with its values, some of them ahead of it.

Legend:
CYP1A2 = target: T1, CYP1A2 (Homo sapiens, UniProt P05177); experiment: Inhibition of CYP1A2 in human liver microsomes using phenacetin as substrate assessed as residual activity at 10 uM preincubated for 5 mins followed by substrate addition and measured after 15 mins in presence of NADPH by LC-MS/MS analysis; assay type: ADME, Microsome; conditions: probe phenacetin, time 20 min, read-out: Activity
T1 sequence (P05177 whole entry): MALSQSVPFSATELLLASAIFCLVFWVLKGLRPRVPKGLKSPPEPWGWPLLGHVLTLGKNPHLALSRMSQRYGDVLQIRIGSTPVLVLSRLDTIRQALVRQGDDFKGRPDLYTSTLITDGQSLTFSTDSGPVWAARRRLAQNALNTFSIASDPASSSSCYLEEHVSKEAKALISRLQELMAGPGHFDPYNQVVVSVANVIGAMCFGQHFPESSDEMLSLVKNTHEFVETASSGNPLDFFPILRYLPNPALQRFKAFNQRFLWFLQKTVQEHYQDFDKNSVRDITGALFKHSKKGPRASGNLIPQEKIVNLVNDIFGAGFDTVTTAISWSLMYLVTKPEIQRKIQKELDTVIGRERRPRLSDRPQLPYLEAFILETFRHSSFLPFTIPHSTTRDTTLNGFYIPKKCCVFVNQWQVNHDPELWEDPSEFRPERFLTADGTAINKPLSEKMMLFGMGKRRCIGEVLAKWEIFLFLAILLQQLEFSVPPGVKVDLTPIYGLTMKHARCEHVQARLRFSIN

[1] = Microsomal stability in mouse liver microsomes assessed as parent compound remaining preincubated for 5 mins followed by NADPH addition measured after 30 mins by LC-MS/MS analysis; assay type: ADME, Microsome; conditions: time 35 min, read-out: Stability
[2] = target: T2, Sphingosine 1-phosphate receptor 1 (Homo sapiens, UniProt P21453); experiment: Agonist activity at S1P1 (unknown origin) expressed in PathHunter CHO-K1 EDG1 beta-arrestin cells assessed as beta-arrestin2 recruitment at 1 uM incubated for 90 mins by chemiluminescence based assay relative to control; assay type: functional, cell-based; conditions: filed as agonist
T2 sequence (P21453 whole entry): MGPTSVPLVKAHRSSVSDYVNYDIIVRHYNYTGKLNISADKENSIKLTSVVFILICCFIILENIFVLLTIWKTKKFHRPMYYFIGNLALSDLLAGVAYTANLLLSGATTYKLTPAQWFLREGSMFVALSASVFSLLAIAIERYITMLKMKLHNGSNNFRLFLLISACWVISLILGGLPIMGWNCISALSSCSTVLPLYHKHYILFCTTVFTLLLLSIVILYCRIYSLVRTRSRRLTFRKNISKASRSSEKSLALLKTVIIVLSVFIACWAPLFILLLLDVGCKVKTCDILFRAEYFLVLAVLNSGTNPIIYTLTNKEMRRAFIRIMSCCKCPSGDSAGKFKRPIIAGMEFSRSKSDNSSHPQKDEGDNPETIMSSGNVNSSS

[3] = target: T2, Sphingosine 1-phosphate receptor 1; experiment: Agonist activity at S1P1 (unknown origin) expressed in human HEK293/Galpha15 cells assessed as Ca2+ activation at 1 uM measured for 2 hrs by FLIPR analysis relative to control; assay type: functional, cell-based
[4] = Microsomal stability in rat liver microsomes assessed as parent compound remaining preincubated for 5 mins followed by NADPH addition measured after 30 mins by LC-MS/MS analysis; assay type: ADME, Microsome; conditions: time 35 min, read-out: Stability
[5] = target: T2, Sphingosine 1-phosphate receptor 1; experiment: Agonist activity at S1P1 (unknown origin) expressed in human HEK293/Galpha15 cells assessed as Ca2+ activation measured for 2 hrs by FLIPR analysis; assay type: functional, cell-based
[6] = target: T2, Sphingosine 1-phosphate receptor 1; experiment: Agonist activity at S1P1 (unknown origin) expressed in PathHunter CHO-K1 EDG1 beta-arrestin cells assessed as beta-arrestin2 recruitment incubated for 90 mins by chemiluminescence based assay; assay type: functional, cell-based
CYP3A4 = CYP3A4 (Homo sapiens, UniProt P08684); experiment: Inhibition of CYP3A4 in human liver microsomes using midazolam as substrate assessed as residual activity at 10 uM preincubated for 5 mins followed by substrate addition and measured after 15 mins in presence of NADPH by LC-MS/MS analysis; assay type: ADME, Microsome; conditions: probe midazolam, time 20 min, read-out: Activity
CYP3A4, sequence (P08684 whole entry): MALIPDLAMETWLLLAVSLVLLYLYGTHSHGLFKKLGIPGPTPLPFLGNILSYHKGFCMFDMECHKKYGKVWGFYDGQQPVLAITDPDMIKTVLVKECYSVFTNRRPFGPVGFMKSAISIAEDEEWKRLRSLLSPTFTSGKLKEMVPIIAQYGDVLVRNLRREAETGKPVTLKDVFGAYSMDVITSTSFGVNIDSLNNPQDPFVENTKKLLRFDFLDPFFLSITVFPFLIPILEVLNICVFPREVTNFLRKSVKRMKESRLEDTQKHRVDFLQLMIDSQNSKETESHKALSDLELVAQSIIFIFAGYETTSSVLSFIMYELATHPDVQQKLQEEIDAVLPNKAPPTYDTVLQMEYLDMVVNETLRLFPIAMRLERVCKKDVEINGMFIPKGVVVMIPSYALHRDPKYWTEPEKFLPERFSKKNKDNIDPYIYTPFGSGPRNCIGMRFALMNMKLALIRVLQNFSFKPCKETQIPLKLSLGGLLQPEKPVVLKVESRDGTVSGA

CYP2C9 = CYP2C9 (Homo sapiens, UniProt P11712); experiment: Inhibition of CYP2C9 in human liver microsomes using diclofenac as substrate assessed as residual activity at 10 uM preincubated for 5 mins followed by substrate addition and measured after 15 mins in presence of NADPH by LC-MS/MS analysis; assay type: ADME, Microsome; conditions: probe diclofenac, time 20 min, read-out: Activity
CYP2C9, sequence (P11712 whole entry): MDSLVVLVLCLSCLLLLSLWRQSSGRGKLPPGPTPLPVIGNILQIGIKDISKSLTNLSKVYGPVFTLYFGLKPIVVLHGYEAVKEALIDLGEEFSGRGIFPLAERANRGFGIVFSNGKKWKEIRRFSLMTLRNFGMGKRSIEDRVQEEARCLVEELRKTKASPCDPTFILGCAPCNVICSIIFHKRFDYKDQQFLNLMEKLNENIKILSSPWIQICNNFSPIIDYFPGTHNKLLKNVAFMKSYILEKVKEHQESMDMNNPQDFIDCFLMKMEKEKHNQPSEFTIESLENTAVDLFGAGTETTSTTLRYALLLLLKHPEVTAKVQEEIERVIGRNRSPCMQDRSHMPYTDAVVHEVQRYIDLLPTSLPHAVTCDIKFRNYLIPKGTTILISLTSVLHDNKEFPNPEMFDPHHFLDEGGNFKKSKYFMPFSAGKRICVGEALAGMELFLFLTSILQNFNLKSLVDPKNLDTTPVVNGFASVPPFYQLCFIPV

[7] = Microsomal stability in human liver microsomes assessed as parent compound remaining preincubated for 5 mins followed by NADPH addition measured after 30 mins by LC-MS/MS analysis; assay type: ADME, Microsome; conditions: time 35 min, read-out: Stability
CYP2D6 = CYP2D6 (Homo sapiens, UniProt P10635); experiment: Inhibition of CYP2D6 in human liver microsomes using dextromethorphan as substrate assessed as residual activity at 10 uM preincubated for 5 mins followed by substrate addition and measured after 15 mins in presence of NADPH by LC-MS/MS analysis; assay type: ADME, Microsome; conditions: probe dextromethorphan, time 20 min, read-out: Activity
CYP2D6, sequence (P10635 whole entry): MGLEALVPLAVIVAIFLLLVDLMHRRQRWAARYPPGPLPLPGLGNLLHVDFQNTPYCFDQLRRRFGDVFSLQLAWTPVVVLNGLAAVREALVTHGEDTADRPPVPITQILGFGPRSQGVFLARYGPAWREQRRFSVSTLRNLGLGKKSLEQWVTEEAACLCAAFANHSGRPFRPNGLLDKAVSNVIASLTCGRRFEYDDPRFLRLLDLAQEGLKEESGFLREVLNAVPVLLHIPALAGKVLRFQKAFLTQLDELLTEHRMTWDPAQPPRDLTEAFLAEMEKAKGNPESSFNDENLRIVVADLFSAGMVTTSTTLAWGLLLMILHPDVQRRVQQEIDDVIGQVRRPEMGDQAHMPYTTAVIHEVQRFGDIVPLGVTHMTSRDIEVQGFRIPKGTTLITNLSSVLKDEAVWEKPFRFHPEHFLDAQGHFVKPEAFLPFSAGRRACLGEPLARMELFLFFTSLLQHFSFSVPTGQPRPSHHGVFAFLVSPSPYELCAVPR

[8] = Microsomal stability in rat liver microsomes assessed as parent compound remaining preincubated for 5 mins followed by NADPH addition measured after 60 mins by LC-MS/MS analysis; assay type: ADME, Microsome; conditions: time 65 min, read-out: Stability
[9] = Microsomal stability in human liver microsomes assessed as parent compound remaining preincubated for 5 mins followed by NADPH addition measured after 60 mins by LC-MS/MS analysis; assay type: ADME, Microsome; conditions: time 65 min, read-out: Stability
[10] = Microsomal stability in mouse liver microsomes assessed as parent compound remaining preincubated for 5 mins followed by NADPH addition measured after 60 mins by LC-MS/MS analysis; assay type: ADME, Microsome; conditions: time 65 min, read-out: Stability

SMILES: CC(C)Oc1ccc(COc2ccc3c(c2)OCCN(S(=O)(=O)CC(=O)O)C3)cc1C#N
activity at 0.25 h, 10 µM (CYP1A2): 88.1% | Activity [2]: 91% | remaining at 1 h [8]: 99.6% | Activity ([3]; filed as agonist): 104% | remaining at 1 h [9]: 97.1% | EC50 [5]: 67 nM | EC50 [6]: 50.5 nM | activity at 0.25 h, 10 µM (CYP3A4): 84.6% | remaining at 1 h [10]: 87.7% | activity at 0.25 h, 10 µM (CYP2C9): 87% | activity at 0.25 h, 10 µM (CYP2D6): 91.1%

SMILES: CC(C)Oc1ccc(COc2ccc3c(c2)CCCN(S(=O)(=O)CCCO)C3)cc1C#N
activity at 0.25 h, 10 µM (CYP1A2): 100% | Activity [2]: 81% | remaining at 1 h [8]: 113% | Activity ([3]; filed as agonist): 69% | remaining at 1 h [9]: 16.2% | EC50 [5]: 502 nM | EC50 [6]: 94.7 nM | activity at 0.25 h, 10 µM (CYP3A4): 82.4% | remaining at 1 h [10]: 8.7% | activity at 0.25 h, 10 µM (CYP2C9): 67.7% | activity at 0.25 h, 10 µM (CYP2D6): 89.4%

SMILES: CC(C)Oc1ccc(COc2ccc3c(n2)CCN(S(=O)(=O)CCC(=O)O)C3)cc1C#N
activity at 0.25 h, 10 µM (CYP1A2): 84.5% | remaining at 0.5 h [1]: 94.2% | Activity [2]: 82% | Activity ([3]; filed as agonist): 82% | remaining at 0.5 h [4]: 98.1% | EC50 [5]: 226 nM | EC50 [6]: 289 nM | activity at 0.25 h, 10 µM (CYP3A4): 85.4% | activity at 0.25 h, 10 µM (CYP2C9): 80.1% | remaining at 0.5 h [7]: 96% | activity at 0.25 h, 10 µM (CYP2D6): 85.3%

SMILES: CC(C)Oc1ccc(COc2ccc3c(c2)CCN(S(=O)(=O)CCC(=O)O)C3C)cc1C#N (centres undefined)
activity at 0.25 h, 10 µM (CYP1A2): 93.2% | Activity [2]: 77% | remaining at 1 h [8]: 90.8% | Activity [3]: 8% | remaining at 1 h [9]: 100% | EC50 [6]: 795 nM | activity at 0.25 h, 10 µM (CYP3A4): 92% | remaining at 1 h [10]: 89.7% | activity at 0.25 h, 10 µM (CYP2C9): 78.4% | activity at 0.25 h, 10 µM (CYP2D6): 87.6%

SMILES: CC(C)Oc1ccc(COc2ccc3c(c2)OCCN(S(=O)(=O)CCCO)C3)cc1C#N
activity at 0.25 h, 10 µM (CYP1A2): 70.2% | Activity [2]: 92% | remaining at 1 h [8]: 6.8% | Activity ([3]; filed as agonist): 46% | remaining at 1 h [9]: 17.5% | EC50 [6]: 73.7 nM | activity at 0.25 h, 10 µM (CYP3A4): 92.7% | remaining at 1 h [10]: 9.3% | activity at 0.25 h, 10 µM (CYP2C9): 57.2% | activity at 0.25 h, 10 µM (CYP2D6): 75.6%

Continued, values first:

activity at 0.25 h, 10 µM (CYP1A2): 59.7% | remaining at 0.5 h [1]: 100% | Activity [2]: 81% | Activity ([3]; filed as agonist): 79% | remaining at 0.5 h [4]: 92.1% | EC50 [5]: 275 nM | EC50 [6]: 455 nM | activity at 0.25 h, 10 µM (CYP3A4): 26.3% | activity at 0.25 h, 10 µM (CYP2C9): 27.6% | remaining at 0.5 h [7]: 94.3% | activity at 0.25 h, 10 µM (CYP2D6): 54.9%
SMILES: CC(C)Oc1ccc(COc2ccc3c(c2)CCN(C(=O)CCC(=O)O)C3)cc1C#N

remaining at 0.5 h [1]: 15.8% | Activity [2]: 107% | Activity [3]: 4% | remaining at 0.5 h [4]: 13.4% | EC50 [6]: 362 nM | remaining at 0.5 h [7]: 21.9%
SMILES: CNC(=O)CCS(=O)(=O)N1CCc2cc(OCc3ccc(OC(C)C)c(C#N)c3)ccc2C1

activity at 0.25 h, 10 µM (CYP1A2): 85.1% | Activity [2]: 116% | remaining at 1 h [8]: 13.1% | Activity ([3]; filed as agonist): 68% | remaining at 1 h [9]: 15.2% | EC50 [5]: 618 nM | EC50 [6]: 11.1 nM | activity at 0.25 h, 10 µM (CYP3A4): 84.7% | remaining at 1 h [10]: 10.7% | activity at 0.25 h, 10 µM (CYP2C9): 53.7% | activity at 0.25 h, 10 µM (CYP2D6): 79.1%
SMILES: CC(C)Oc1ccc(COc2ccc3c(c2)CCCN(S(=O)(=O)CCO)C3)cc1C#N

remaining at 0.5 h [1]: 42.8% | Activity [2]: 122% | Activity [3]: 23% | remaining at 0.5 h [4]: 41.7% | EC50 [6]: 252 nM | remaining at 0.5 h [7]: 29.7%
SMILES: CC(C)Oc1ccc(COc2ccc3c(c2)CCN(C(=O)CCNS(C)(=O)=O)C3)cc1C#N

remaining at 0.5 h [1]: 14.1% | Activity [2]: 98% | Activity [3]: 4% | remaining at 0.5 h [4]: 18.7% | EC50 [6]: 453 nM | remaining at 0.5 h [7]: 18.9%
SMILES: CC(C)Oc1ccc(COc2ccc3c(c2)CCN(S(=O)(=O)CCC(=O)N(C)C)C3)cc1C#N

remaining at 0.5 h [1]: 11.4% | Activity [2]: 76% | Activity [3]: 25% | remaining at 0.5 h [4]: 13.9% | EC50 [6]: 567 nM | remaining at 0.5 h [7]: 24.4%
SMILES: CC(C)Oc1ccc(COc2ccc3c(c2)CCN(C(=O)CCC(=O)N(C)C)C3)cc1C#N
